Laboratory results from patent publication US20010051602A1, “Methods for increasing ApoE levels for the treatment of neurodegenerative disease” (priority 1997, published 2001).
Several values for one entry are separate records, joined by “and”; a condition that tells them apart may be missing. Identical values can stand only once.

What was measured:
ApoE [1] = test: ApoE in medium of rat primary type 1 astrocyte cultures exposed to probucol, immunoblot; format: cell-based
Procedure: Apo E concentration was assessed in the cell culture medium by immunoblot analysis using methods previously described (Poirier et al., Neuroscience, 55:81-90 (1993)). In the absence of probucol (EtOH control) very little ApoE is detected in the media (i.e., the extracellular compartment). […] We also observed that the amount of ApoE detected in the media at 48 hours was less than the amount of ApoE in the media after only 24 hours of incubation. This time-dependent response in ApoE levels may reflect the continued division and growth of cells.

ApoE [2] = test: clinical trial: ApoE levels in CSF of AD patients treated with probucol, immunoblot; format: in vivo, human; conditions: probucol 1000 mg/day; for Average Change in ApoE (% baseline): one month of treatment, 8 patients
Procedure: Biological Marker: A lumbar puncture was performed at baseline and one month after treatment. The relative concentrations of ApoE levels in the CSF were determined by immunoblot as described by Poirer, J. et al., Neuroscience 55:81-90 (1993).
The cerebral spinal fluid (CSF) of the above subjects was analyzed for the concentration of ApoE protein by immunoblot using an internal standard. The samples for the first six patients were analyzed independently of the last two patients, thus the scales for patients 1-6 are different from the scales for patients 8 and 9.

Alzheimer's disease = test: clinical trial: Clinical Impression of Change (CIBIC-Plus); format: in vivo, human; set-up: key to CIBIC Scores, 3 months, Average / CIBIC Scores, 6 months, Average: 7-point scale: 1 = very much improved, 4 = no change, 7 = very much worse
Procedure: Neuropsychological Assessment: The Clinical Impression of Change (CIBIC-Plus) and the Global Deterioration Scale (GDS) were recorded at 3 and 6 months. The Clinical Impression of Change (CIBIC-Plus) consists of the holistic impression by the clinician of whether the patient has shown any change since baseline as rated on a seven point sale (marked, moderate, mild improvement, no change, or marked, moderate, mild decline). The Global Deterioration Scale rates clinically identifiable stages of dementia. […] This test provides a holistic impression by the clinician of whether the patient has shown any change since baseline. The CIBIC is scored as a seven point scale, with a range from 1=“very much improved” to 4=“no change” to 7=“very much worse.” Changes in the CIBIC score have shown only weak correlation with changes in the ADAS-Cog and have been reported to be less sensitive to change than other measures. The FDA guidelines are widely interpreted as mandating the use of the CIBIC and this scale serves to measure the impact of treatment protocols on the quality of life for the patient.

β-amyloid protein (1-40) = test: clinical trial: CSF total β-amyloid (1-40); format: in vivo, human
Source text: Biological Markers: Additional biochemical markers included phenotyping of the patients ApoE and determining relative concentrations of tau protein, P-amyloid protein (1-42 and 1-40); and relative extent of lipid peroxidation.
Tables 11 and 12 summarize the changes in total β-amyloid protein (1-40 and 1-42) at one month, as a percentage of the baseline values.

lipid peroxidation = test: clinical trial: lipid peroxidation in the CSF (TBARS); format: in vivo, human
Procedure: In order to assess the antioxidant properties of probucol we analyzed lipid peroxidation levels in the CSF of patients before and after one month of treatment with probucol (one month). In vitro lipid peroxidation was measured according to the method of Ohkawa et al. (Anal. Biochem., 95:351-358 (1979)) with some modifications. Briefly, cerebrospinal fluid samples from Alzheimer's disease patients were prepared in 20 volumes of phosphate buffer (pH=7) (95% N2, 5% CO2) with a Teflon homogenizer. After centrifugation (1000 g, 10 min., 2° C.), the supernatant was precipitated with trichloroacetic acid (72%) according to Brown et al. (Anal. Biochem., 189:136-139 (1989)). This procedure removed material such as non-lipid-derived malondialdehyde (MDA) that could interfere with lipid peroxidation measurement. After precipitation with trichloracetic acid and centrifugation (10000 g, 15 min., 2° C.), 100 μl of the supernatant containing human brain homogenates was used to measure MDA levels. These supernatants were incubated with 20 μl of SDS 10%, 150 μl of acetic acid 20% (pH 3.5), and 150 μl of thiobarbituric acid (TBA) (0.6% in 0.05 N NaOH) and heated at 100° C. for 60 min. This step was performed under a controlled atmosphere (95% N^2, 5% CO^2) in sealed vials to avoid formation of MDA during heating. At the end of the incubation, the reaction was stopped at 4° C. The MDA-TBA complex of TBARS (thiobarbituric acid reactive substances) was then extracted with 300 μl of butanol/pyridine (15:1) by strong shaking (for 30 sec.) followed by centrifugation (1000 g, 10 min., 4° C.).

[3] = individual AD patient, 1 very much improved, 4 no change, 7 very much worse

CC(C)(Sc1cc(C(C)(C)C)c(O)c(C(C)(C)C)c1)Sc1cc(C(C)(C)C)c(O)c(C(C)(C)C)c1 [probucol]
extracellular amount of ApoE (ApoE [1]; 1 nM, 24 hours post dosing, versus EtOH control): dramatically increased
extracellular ApoE with increasing concentrations (ApoE [1]; 100 nM and 10 uM versus 1 nM): Further increases
amount of ApoE in the media at 48 hours versus 24 hours (ApoE [1]; 48 hours compared with 24 hours of incubation): less
Change in ApoE (% baseline) (ApoE [2]; 1 month, individual AD patient): 118% baseline and 89% baseline and 87% baseline and 152% baseline and 105% baseline and 178% baseline and 136% baseline and 133% baseline
ApoE 1 month (ROD) (ApoE [2]; individual AD patient, scales of patients 1-6 differ from patients 8 and 9): 2.59 ROD and 7.14 ROD and 9.17 ROD and 0.1086 ROD and 0.0861 ROD and 8.03 ROD and 14.81 ROD and 10.27 ROD
Average Change in ApoE (% baseline) (ApoE [2]): 125%
Average Change in ApoE (% baseline) (ApoE [2]; listed as Probucol): 125%
CIBIC-Plus evaluation for the group as a whole (Alzheimer's disease; 6 month course of treatment): slight deterioration
CIBIC Scores, 3 months, Average (Alzheimer's disease; average of patients): 3.9
CIBIC Scores, 6 months, Average (Alzheimer's disease; average of patients): 5.3
CIBIC Scores, 3 months (Alzheimer's disease; [3]): 3 (3×) and 5 (2×) and 4 (4×)
CIBIC Scores, 6 months (Alzheimer's disease; [3]): 5 (4×) and 6 (3×) and 4
[β amyloid 1-40] in the CSF, % change (β-amyloid protein (1-40); 1 month as a percentage of the baseline value, individual AD patient): 345% and 108% and 100% and 241% and 105% and 107% and 979% and 2157%
[β amyloid 1-40] in the CSF, 1 month (β-amyloid protein (1-40); individual AD patient, average of triplicate assays): 3.44 and 3.95 and 4.96 and 7.55 and 3.26 and 3.51 and 5.35 and 2.16
levels of β-amyloid in the CSF (β-amyloid protein (1-40); one month of treatment, Alzheimer's patients, β-amyloid 1-40 and 1-42): overall increase
Lipid Peroxidation, Change (% Baseline), average (lipid peroxidation; 1 month, average for eight patients): 100.9 % Baseline
Lipid Peroxidation, Change (% baseline) (lipid peroxidation; 1 month, individual AD patient): 100.3 % baseline and 97.4 % baseline and 94.8 % baseline and 97.5 % baseline and 104.2 % baseline and 92.8 % baseline and 103.8 % baseline and 116.1 % baseline
Lipid Peroxidation, 1 month (lipid peroxidation; individual AD patient, average of 4-6 determinations): 0.705 Fluorescence Units and 0.686 Fluorescence Units and 0.687 Fluorescence Units and 0.692 Fluorescence Units and 0.744 Fluorescence Units and 0.691 Fluorescence Units and 0.731 Fluorescence Units and 0.824 Fluorescence Units
